Data from ChEMBL document CHEMBL1165900, “A computational study of the binding of 3-(arylidene) anabaseines to two major brain nicotinic acetylcholine receptors and to the acetylcholine binding protein” (Eur J Med Chem, 2010).

What was measured:
[1] = target: Neuronal acetylcholine receptor subunit alpha-7 (Rattus norvegicus, UniProt Q05941); format: cell membranes, Brain, Membrane
Description: (§2) Displacement of [125I]-alpha-bungarotoxin from alpha7 nAChR in rat brain membrane after 3 hrs

[2] = target: Neuronal acetylcholine receptor subunit alpha-7 (Rattus norvegicus) (UniProt Q05941); conditions: Brain, Membrane
Neuronal acetylcholine receptor subunit alpha-7 (Rattus norvegicus), sequence (Q05941 whole entry): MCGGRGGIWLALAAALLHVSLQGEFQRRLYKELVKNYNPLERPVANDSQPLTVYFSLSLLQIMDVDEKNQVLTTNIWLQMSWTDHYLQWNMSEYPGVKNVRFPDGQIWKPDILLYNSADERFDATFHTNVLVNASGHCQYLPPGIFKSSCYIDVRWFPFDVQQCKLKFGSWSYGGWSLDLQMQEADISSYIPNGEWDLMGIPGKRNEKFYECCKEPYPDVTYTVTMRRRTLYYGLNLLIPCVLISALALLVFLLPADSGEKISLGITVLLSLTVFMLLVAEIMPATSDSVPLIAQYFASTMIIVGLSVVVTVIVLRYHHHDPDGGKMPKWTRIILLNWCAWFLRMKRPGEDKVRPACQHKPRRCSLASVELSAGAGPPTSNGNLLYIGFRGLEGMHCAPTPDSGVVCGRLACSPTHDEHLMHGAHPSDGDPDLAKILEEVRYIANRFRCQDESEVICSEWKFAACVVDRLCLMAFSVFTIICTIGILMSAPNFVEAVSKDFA
Description: as §2

[3] = target: Neuronal acetylcholine receptor; alpha4/beta2 (Rattus norvegicus) (UniProt P09483+P12390); experiment: (§1) Displacement of [3H]cytisine from alpha4beta2 nAChR in rat brain membrane after 3 hrs; format: cell membranes
[4] = target: Neuronal acetylcholine receptor; alpha4/beta2 (Rattus norvegicus, UniProt P09483+P12390); experiment: as §1; format: cell membranes
Neuronal acetylcholine receptor; alpha4/beta2, sequence (P09483 whole entry): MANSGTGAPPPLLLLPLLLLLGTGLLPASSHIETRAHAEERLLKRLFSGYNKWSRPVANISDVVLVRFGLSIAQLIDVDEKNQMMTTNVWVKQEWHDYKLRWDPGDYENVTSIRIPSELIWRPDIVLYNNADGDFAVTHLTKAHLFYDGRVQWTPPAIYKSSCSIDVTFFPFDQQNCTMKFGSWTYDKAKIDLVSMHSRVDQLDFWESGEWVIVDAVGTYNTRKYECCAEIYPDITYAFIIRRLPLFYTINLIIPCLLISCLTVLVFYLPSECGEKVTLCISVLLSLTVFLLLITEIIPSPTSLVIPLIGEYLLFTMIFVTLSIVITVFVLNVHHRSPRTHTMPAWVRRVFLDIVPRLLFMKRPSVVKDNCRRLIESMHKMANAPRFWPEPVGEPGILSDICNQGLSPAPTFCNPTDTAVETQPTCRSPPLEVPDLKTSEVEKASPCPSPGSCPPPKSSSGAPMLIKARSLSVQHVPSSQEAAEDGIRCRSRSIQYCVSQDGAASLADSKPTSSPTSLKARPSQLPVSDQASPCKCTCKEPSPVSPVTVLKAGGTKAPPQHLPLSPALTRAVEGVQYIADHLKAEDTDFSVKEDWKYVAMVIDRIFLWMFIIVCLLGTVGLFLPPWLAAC
Neuronal acetylcholine receptor; alpha4/beta2, sequence (P12390 whole entry): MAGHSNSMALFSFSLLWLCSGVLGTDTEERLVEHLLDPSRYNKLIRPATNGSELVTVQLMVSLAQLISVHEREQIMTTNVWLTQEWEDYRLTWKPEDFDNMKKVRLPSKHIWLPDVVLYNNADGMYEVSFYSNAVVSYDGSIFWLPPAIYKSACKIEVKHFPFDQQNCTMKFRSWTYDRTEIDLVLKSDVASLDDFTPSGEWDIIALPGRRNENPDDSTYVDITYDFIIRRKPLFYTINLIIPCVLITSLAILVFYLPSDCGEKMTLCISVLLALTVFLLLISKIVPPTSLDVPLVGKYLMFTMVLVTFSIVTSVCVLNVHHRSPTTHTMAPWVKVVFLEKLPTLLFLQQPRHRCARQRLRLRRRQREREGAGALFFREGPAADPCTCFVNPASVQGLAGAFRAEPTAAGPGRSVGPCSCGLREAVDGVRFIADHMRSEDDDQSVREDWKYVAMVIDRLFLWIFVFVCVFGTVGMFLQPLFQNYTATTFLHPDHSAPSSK

Neuronal acetylcholine receptor subunit alpha-7, sequence (Q05941 whole entry): as the sequence (Q05941 whole entry) above

| SMILES | Ki [1] [nM] | Ki [2] [nM] | Ki [3] [nM] | Ki [4] [nM] |
| --- | --- | --- | --- | --- |
| COc1ccc(/C=C2\CCCN=C2c2cccnc2)c(OC(C)=O)c1 | 300 | 523 | 114 | 770 |
| FC(F)(F)Oc1ccccc1/C=C1\CCCN=C1c1cccnc1 |  |  | 246 | 1760 |
| Oc1cccc(/C=C2\CCCN=C2c2cccnc2)c1 | 150 | 824 | 68 | 1170 |
| CC(C)(C)C(=O)Oc1ccccc1/C=C1\CCCN=C1c1cccnc1 | 650 | 187 | 158 | 1440 |
| CSc1ccc(/C=C2\CCCN=C2c2cccnc2)cc1 | 250 | 602 | 46 | 900 |
| CC(C)(C)Oc1ccc(/C=C2\CCCN=C2c2cccnc2)cc1 | 2230 | 348 | 336 | 2170 |
| Cc1cc(O)cc(C)c1/C=C1\CCCN=C1c1cccnc1 | 5490 | 740 | 174 | 670 |
| FC(F)Oc1ccc(/C=C2\CCCN=C2c2cccnc2)cc1 | 1010 | 4 | 64 | 1160 |
| C(=C1/CCCN=C1c1cccnc1)/c1ccc(N2CCOCC2)cc1 | 300 | 523 | 553 | 280 |
| CC(C)(C)C(=O)Oc1ccc(/C=C2\CCCN=C2c2cccnc2)cc1 | 690 | 161 | 81 | 830 |
| COc1ccc(/C=C2\CCCN=C2c2cccnc2)cc1 | 570 | 244 | 310 | 490 |
| Oc1ccc(/C=C2\CCCN=C2c2cccnc2)cc1 | 360 | 444 | 347 | 450 |
| CCN(CC)c1ccc(/C=C2\CCCN=C2c2cccnc2)c(O)c1 | 50 | 1300 | 886 | 130 |
| Cc1cc(C)c(/C=C2\CCCN=C2c2cccnc2)c(C)c1 | 1510 | 179 | 284 | 520 |
| Cc1ccc(/C=C2\CCCN=C2c2cccnc2)cc1 | 436 | 361 | 4 | 990 |
| COc1ccc(/C=C2\CCCN=C2c2cccnc2)c(O)c1 | 320 | 495 | 409 | 390 |
| Clc1ccc(/C=C2\CCCN=C2c2cccnc2)cc1 | 1120 | 49 | 13 | 970 |
| CC(=O)c1ccc(/C=C2\CCCN=C2c2cccnc2)cc1 |  |  |  | 4490 |
| Oc1ccc(/C=C2\CCCN=C2c2cccnc2)c(O)c1 | 200 | 699 | 678 | 210 |
| COc1ccc(/C=C2\CCCN=C2c2cccnc2)c(OC)c1 [GTS-21] | 130 | 886 | 602 | 250 |
| COc1cc(OC)c(/C=C2\CCCN=C2c2cccnc2)c(OC)c1 | 180 | 745 | 1220 | 60 |
| COc1cccc(/C=C2\CCCN=C2c2cccnc2)c1 | 460 | 337 | 72 | 1180 |

| SMILES | Ki [1] [nM] | Ki [2] [nM] | Ki [3] [nM] | Ki [4] [nM] |
| --- | --- | --- | --- | --- |
| C(=C1/CCCN=C1c1cccnc1)/c1ccc(-n2ccnn2)cc1 |  | 72 | 284 |  |
| CNc1ccc(/C=C2\CCCN=C2c2cccnc2)cc1 | 50 | 1300 | 1300 | 50 |
| C(=C1/CCCN=C1c1cccnc1)/c1ccccc1 [3-BENZYLIDENEANABASEINE] | 600 | 222 | 71 | 850 |
| COc1ccc(/C=C2\CCCN=C2c2cccnc2)c(OC(C)C)c1 | 70 | 1160 | 770 | 170 |
| CC(=O)Nc1ccc(/C=C2\CCCN=C2c2cccnc2)cc1 | 240 | 620 | 420 | 380 |
| CN(C)c1ccc(/C=C2\CCCN=C2c2cccnc2)cc1 | 80 | 1100 | 770 | 170 |
| CCC(CC)Oc1cc(OC)ccc1/C=C1\CCCN=C1c1cccnc1 | 50 | 1300 | 367 | 430 |
| C(=C1/CCCN=C1c1cccnc1)/c1ccc2c(c1)OCO2 |  | 638 | 155 |  |
| CCCc1ccc(/C=C2\CCCN=C2c2cccnc2)cc1 | 280 | 553 | 51 | 890 |
| N#Cc1ccc(/C=C2\CCCN=C2c2cccnc2)cc1 | 2300 | 362 | 90 | 1230 |
| COc1ccc2cc(/C=C3\CCCN=C3c3cccnc3)ccc2c1 |  | 432 | 222 |  |
| FC(F)Oc1ccccc1/C=C1\CCCN=C1c1cccnc1 |  |  |  | 1410 |
| C(=C1/CCCN=C1c1cccnc1)/c1ccc2c(c1)OCCO2 |  | 699 | 284 |  |
| CC(=O)Oc1ccccc1/C=C1\CCCN=C1c1cccnc1 | 570 | 244 | 155 | 700 |
| OCCN(CCO)c1ccc(/C=C2\CCCN=C2c2cccnc2)cc1 | 190 | 721 | 796 | 160 |
| C(=C1/CCCN=C1c1cccnc1)/c1cc2ccccc2o1 |  | 823 | 772 |  |
| FC(F)(F)Oc1ccc(/C=C2\CCCN=C2c2cccnc2)cc1 |  |  |  | 930 |
| Nc1ccc(/C=C2\CCCN=C2c2cccnc2)cc1 | 50 | 1300 | 921 | 120 |
| COc1cc(/C=C2\CCCN=C2c2cccnc2)cc(OC)c1OC | 3480 | 542 | 669 | 4670 |
| Cc1cc(/C=C2\CCCN=C2c2cccnc2)cc(C)c1O | 530 | 276 | 444 | 360 |
| CC(=O)Oc1ccc(/C=C2\CCCN=C2c2cccnc2)cc1 | 170 | 770 | 602 | 250 |
| CCCCOc1ccc(/C=C2\CCCN=C2c2cccnc2)cc1 |  |  |  | 1960 |
